Several values for one entry are separate records, joined by “and”; a condition that tells them apart may be missing. Equal entries are not always repeated.
Assay: xn = mol fraction of the nth substance listed

c1ccccc1 + CCCCO
Details | viscosity
293.15 K, 101.33 kPa, x2 = 0.2 | 0.714 mPa·s and 0.714 mPa·s
293.15 K, 101.33 kPa, x2 = 0.4 | 0.898 mPa·s
293.15 K, 101.33 kPa, x2 = 0.5 | 1.054 mPa·s and 1.054 mPa·s
293.15 K, 101.33 kPa, x2 = 0.6 | 1.279 mPa·s
293.15 K, 101.33 kPa, x2 = 0.8 | 1.92 mPa·s
298.15 K, 101 kPa, x1 = 0.082 | 2.158 mPa·s
298.15 K, 101 kPa, x1 = 0.151 | 1.88 mPa·s
298.15 K, 101 kPa, x1 = 0.254 | 1.511 mPa·s
298.15 K, 101 kPa, x1 = 0.345 | 1.277 mPa·s
298.15 K, 101 kPa, x1 = 0.52 | 0.919 mPa·s
298.15 K, 101 kPa, x1 = 0.678 | 0.754 mPa·s
298.15 K, 101 kPa, x1 = 0.841 | 0.63 mPa·s
298.15 K, 101 kPa, x1 = 0.915 | 0.601 mPa·s
298.15 K, 101 kPa, x2 = 0.05 | 0.604 mPa·s
298.15 K, 101 kPa, x2 = 0.1 | 0.62 mPa·s
298.15 K, 101 kPa, x2 = 0.16 | 0.64 mPa·s
298.15 K, 101 kPa, x2 = 0.21 | 0.664 mPa·s
298.15 K, 101 kPa, x2 = 0.41 | 0.842 mPa·s
298.15 K, 101 kPa, x2 = 0.51 | 1.006 mPa·s
298.15 K, 101 kPa, x2 = 0.61 | 1.178 mPa·s
298.15 K, 101 kPa, x2 = 0.81 | 1.684 mPa·s
298.15 K, 101.33 kPa, x2 = 0.2 | 0.655 mPa·s
298.15 K, 101.33 kPa, x2 = 0.216 | 0.657 mPa·s
298.15 K, 101.33 kPa, x2 = 0.409 | 0.824 mPa·s
298.15 K, 101.33 kPa, x2 = 0.604 | 1.119 mPa·s
298.15 K, 101.33 kPa, x2 = 0.808 | 1.71 mPa·s
303 K, 101.3 kPa, x1 = 0.1035 | 1.9 mPa·s
303 K, 101.3 kPa, x1 = 0.2024 | 1.601 mPa·s
303 K, 101.3 kPa, x1 = 0.3037 | 1.344 mPa·s
303 K, 101.3 kPa, x1 = 0.4 | 1.145 mPa·s
303 K, 101.3 kPa, x1 = 0.5047 | 0.9759 mPa·s
303 K, 101.3 kPa, x1 = 0.5931 | 0.8562 mPa·s
303 K, 101.3 kPa, x1 = 0.7016 | 0.7412 mPa·s
303 K, 101.3 kPa, x1 = 0.766 | 0.6921 mPa·s
303 K, 101.3 kPa, x1 = 0.8859 | 0.611 mPa·s
303.15 K, 101 kPa, x1 = 0.082 | 1.918 mPa·s
303.15 K, 101 kPa, x1 = 0.151 | 1.668 mPa·s
303.15 K, 101 kPa, x1 = 0.254 | 1.354 mPa·s
303.15 K, 101 kPa, x1 = 0.345 | 1.145 mPa·s
303.15 K, 101 kPa, x1 = 0.52 | 0.838 mPa·s
303.15 K, 101 kPa, x1 = 0.678 | 0.694 mPa·s
303.15 K, 101 kPa, x1 = 0.841 | 0.587 mPa·s
303.15 K, 101 kPa, x1 = 0.915 | 0.564 mPa·s
303.15 K, 101.33 kPa, x2 = 0.2 | 0.604 mPa·s
303.15 K, 101.33 kPa, x2 = 0.4 | 0.746 mPa·s
303.15 K, 101.33 kPa, x2 = 0.5 | 0.864 mPa·s
303.15 K, 101.33 kPa, x2 = 0.6 | 1.021 mPa·s
303.15 K, 101.33 kPa, x2 = 0.8 | 1.49 mPa·s
308.15 K, 101 kPa, x1 = 0.082 | 1.702 mPa·s
308.15 K, 101 kPa, x1 = 0.151 | 1.49 mPa·s
308.15 K, 101 kPa, x1 = 0.254 | 1.209 mPa·s
308.15 K, 101 kPa, x1 = 0.345 | 1.032 mPa·s
308.15 K, 101 kPa, x1 = 0.52 | 0.764 mPa·s
308.15 K, 101 kPa, x1 = 0.678 | 0.64 mPa·s
308.15 K, 101 kPa, x1 = 0.841 | 0.549 mPa·s
308.15 K, 101 kPa, x1 = 0.915 | 0.529 mPa·s
308.15 K, 101.33 kPa, x2 = 0.2 | 0.562 mPa·s and 0.562 mPa·s
308.15 K, 101.33 kPa, x2 = 0.216 | 0.564 mPa·s
308.15 K, 101.33 kPa, x2 = 0.4 | 0.687 mPa·s
308.15 K, 101.33 kPa, x2 = 0.409 | 0.691 mPa·s
308.15 K, 101.33 kPa, x2 = 0.5 | 0.791 mPa·s and 0.791 mPa·s
308.15 K, 101.33 kPa, x2 = 0.6 | 0.924 mPa·s
308.15 K, 101.33 kPa, x2 = 0.604 | 0.911 mPa·s
308.15 K, 101.33 kPa, x2 = 0.8 | 1.335 mPa·s
308.15 K, 101.33 kPa, x2 = 0.808 | 1.353 mPa·s
313.15 K, 101 kPa, x1 = 0.082 | 1.51 mPa·s
313.15 K, 101 kPa, x1 = 0.151 | 1.336 mPa·s
313.15 K, 101 kPa, x1 = 0.254 | 1.086 mPa·s
313.15 K, 101 kPa, x1 = 0.345 | 0.934 mPa·s
313.15 K, 101 kPa, x1 = 0.52 | 0.702 mPa·s
313.15 K, 101 kPa, x1 = 0.678 | 0.593 mPa·s
313.15 K, 101 kPa, x1 = 0.841 | 0.513 mPa·s
313.15 K, 101 kPa, x1 = 0.915 | 0.494 mPa·s
318.15 K, 101 kPa, x1 = 0.082 | 1.351 mPa·s
318.15 K, 101 kPa, x1 = 0.151 | 1.195 mPa·s
318.15 K, 101 kPa, x1 = 0.254 | 0.979 mPa·s
318.15 K, 101 kPa, x1 = 0.345 | 0.847 mPa·s
318.15 K, 101 kPa, x1 = 0.52 | 0.645 mPa·s
318.15 K, 101 kPa, x1 = 0.678 | 0.553 mPa·s
318.15 K, 101 kPa, x1 = 0.841 | 0.48 mPa·s
318.15 K, 101 kPa, x1 = 0.915 | 0.465 mPa·s

Source: the CheMixHub viscosity set
